How the values were obtained:
[1] = In vivo pharmacokinetic evaluation in rat; design: species or system Sprague Dawley male rats
Procedure: In order to study the pharmacokinetic (PK) profile of test compounds in vivo, Sprague Dawley male rats or C57BL/6 female mice were dosed intravenously or after oral gavage. For both species, test compounds were dosed in solution at 1 mg/kg for i.v. route (10% ethanol, 10% N,N-dimethylacetamide, 30% propylene glycol, 50% water, v/v) and in suspension at 5 mg/kg (0.5% carboxymethylcellulose suspension, containing 0.25% Tween 20 in water) for oral gavage. PK profile in rat was obtained from 3 animals per dosing route and mouse PK profile was determined from 3 animals for each time points. The volume of administration was 2 mL/kg for i.v. dosing in both species and either 5 mL/kg (rat) or 10 mL/kg (mouse) for oral gavage. Blood samples (100 μL/time point) were collected at 0.083 (5 min), 0.25, 0.5, 1, 4, 7 and 24 hours post-dose for i.v. dosing, and at 0.5, 1, 4, 7 and 24 h for oral dosing, into heparin-Li+ containing tubes. For rats, all blood samples were collected trough a catheter in the carotid artery (placed in the artery the day before the experiment), under light isoflurane anesthesia, and stored on ice until centrifugation and plasma isolation. […] For bioanalysis, samples were processed by protein precipitation (acetonitrile, formic acid 0.1%, addition of 3 volumes) after addition of one internal standard and analysed using a sensitive and selective LC/MS/MS method. An aliquot of the resulting supernatant was subject to LC/MS/MS analysis using a reverse phase column (Waters Xterra, C8, (3.5 μm particle size, 2.1×50 mm) and a short gradient (1 min) from (Solvent A) 85% water, 15% acetonitrile and 0.1% formic acid to (Solvent B) 90% acetonitrile, 10% water and 0.1% formic acid followed by isocratic conditions of Solvent B for 3.5 min at 0.4 mL/min. Column effluent was monitored using a Sciex API 4000 triple quadrupole mass spectrometer with a Turbo V electrospray ion source. Unknown concentrations of test compounds were determined using a calibration curve ranging from 1 to 3000 ng/mL.

[2] = test system: OVA-induced lung eosinophilia in mice; test: OVA-induced lung eosinophilia in mice; format: in vivo, BALB/c mice; conditions: BAL fluid, oral gavage
Procedure: BALB/c mice (6-8 weeks old) were immunized with ovalbumin (10 μg i.p) on day 0 and 7. In order to elicit a local inflammatory response in the lung, mice were challenged between day's 15-17 with a nebulised solution of ovalbumin (10 μg/ml; De Vilibiss Ultraneb 2000, once daily for 30 min during the 3 days). On each separate day between 15 and 17 each animal received via oral gavage the test compound, at t−1 h and t+7 h with respect to OVA exposure at t=0 h. Eight hours after the final OVA challenge, bronchoalveolar lavage (BAL) was then carried out. Total cell numbers in the BAL fluid samples were measured using a haemocytometer. Cytospin smears of the BAL fluid samples were prepared by centrifugation at 1200 rpm for 2 min at room temperature and stained using a DiffQuik stain system (Dade Behring) for differential cell counts. […]

Oral bioavailability [1] [%]	Clearance iv (1 mg/Kg) ([1]; i.v. 1 mg/Kg) [mL/min/kg]	AUC ([1]; male, Sprague Dawley, plasma, oral gavage 5 mg/Kg) [ng·h/mL]	SMILES	% inhibition eosinophils (mean ± s.e.m.) ([2]; dose 3 mg/kg) [%]	% inhibition total cells (mean ± s.e.m.) ([2]; dose 3 mg/kg) [%]	% inhibition eosinophils (mean ± s.e.m.) ([2]; dose 10 mg/kg) [%]	% inhibition total cells (mean ± s.e.m.) ([2]; dose 10 mg/kg) [%]	% inhibition eosinophils (mean ± s.e.m.) ([2]; dose 30 mg/kg) [%]	% inhibition total cells (mean ± s.e.m.) ([2]; dose 30 mg/kg) [%]
28	6.7	3700	CCCS(=O)(=O)c1cccc(C#Cc2cc(Cl)ccc2OCC(=O)O)c1 [Example 17, (4-chloro-2-{[3-(propylsulfonyl)phenyl]ethynyl}phenoxy)acetic acid]						
			CCCS(=O)(=O)c1ccc(C)c(C#Cc2cc(Cl)ccc2OCC(=O)O)c1 [Example 38, (4-chloro-2-{[2-methyl-5-(propylsulfonyl)phenyl]ethynyl}phenoxy)acetic acid]	29 ± 14	21 ± 13	54 ± 16	42 ± 14	81 ± 7	67 ± 8
			CCCS(=O)(=O)c1ccc(F)c(C#Cc2cc(Cl)ccc2OCC(=O)O)c1 [Example 89, (4-chloro-2-{[2-fluoro-5-(propylsulfonyl)phenyl]ethynyl}phenoxy)acetic acid]	19 ± 18	12 ± 15	27 ± 10	19 ± 8	55 ± 11	44 ± 10

From US8273769B2, “Phenoxy acetic acid derivatives” (Merck Serono SA, priority 2009, dated 2012)
